Measurements taken from patent publication US20240285571A1, “METHODS OF TREATING BONE INFECTIONS” (MICROBION CORPORATION, priority 2020, published 2024).
Converted amounts (≈) assume the structure as drawn. Blank lines part the entries; values can stand above or below the molecule they belong to.

Key:
[1] = test system: relevant ATCC QC organisms; assay: Broth microdilution MIC, QC (Example 6); format: cell-based
Experimental: (§1) Test Compounds: The test agents BisEDT (MB-1-B3; Lot No. ED268-1-11-01), MB-2B, and MB-6 were stored at room temperature, in the dark, until assayed. The solvent and diluent for the test agents was DMSO (Sigma; St. Louis, MO; Lot No. SHBB9319V) and the prepared stock concentration was 6,464 μg/mL (101× the final test concentration).
(§2) Test compounds were evaluated at a concentration range of 0.06-64 μg/mL. For Gram-negative test isolates, amikacin and ceftazidime (alone and with clavulanate at a fixed concentration of 4 μg/mL) were evaluated over a concentration range of 0.06-64 μg/mL; meropenem and levofloxacin were evaluated over a concentration range of 0.008-8 μg/mL. For the testing of S. aureus, clindamycin, daptomycin, levofloxacin and vancomycin were evaluated at a concentration range of 0.008-8 μg/mL; linezolid was tested from 0.03-32 μg/mL.
Organisms: The test organisms as shown in Tables 11-15 consisted of clinical isolates from the Micromyx (MMX) repository and reference strains from the American Type Culture Collection (ATCC; Manassas, VA), National Collection of Type Cultures (NCTC; Public Health England, Salisbury, UK), the Network on Antimicrobial Resistance in Staphylococcus aureus (NARSA; BEI Resources, Manassas, VA), and the Centers for Disease Control and Prevention (CDC; Atlanta, GA). The test organisms were maintained frozen at −80° C. Prior to testing, the isolates were cultured on Tryptic Soy Agar with 5% sheep blood (BAP; Becton Dickson [BD]/BBL; Sparks, MD; Lot Nos. 9080650 and 9108563) at 35° C. Relevant ATCC quality control (QC) organisms (Table 16) were included during testing in accordance with CLSI guidelines (3). Further details on the genetic characterization of the isolates where available can be found in Table 17.
(§3) Media: Cation-adjusted Mueller Hinton broth (CAMHB; BD; Lot No. 8190586) was used as the medium for testing (2, 3). For testing daptomycin, calcium was supplemented with […] Ca^2+, resulting in a final concentration of […] Ca^2+ (2, 3).
(§4) MIC Assay Procedure: MIC values were determined using a broth microdilution procedure described by CLSI (2, 3). Automated liquid handlers (Multidrop 384, Labsystems, Helsinki, Finland; Biomek 2000 and Biomek F X, Beckman Coulter, Fullerton CA) were used to conduct serial dilutions and liquid transfers.
(§5) To prepare the drug mother plates, which would provide the serial drug dilutions for the replicate daughter plates, the wells of columns 2 through 12 of standard 96-well microdilution plates (Costar 3795) were filled with 150 μl of the appropriate diluent for each row of drug. The test articles and comparator compounds (300 μl at 101× the highest concentration to be tested) were dispensed into the appropriate wells in column 1. The Biomek 2000 was then used to make 2-fold serial dilutions in the mother plates from column 1 through column 11. The wells of column 12 contained no drug and served as the organism growth control wells for the assay.
(§6) The daughter plates were loaded with 190 μL per well of RPMI using the Multidrop 384. The test panels were prepared on the Biomek FX instrument which transferred 2 μL of drug solution from each well of a mother plate to the corresponding well of each daughter plate in a single step.
(§7) A standardized inoculum of each test organism was prepared per CLSI methods to equal a 0.5 McFarland standard, followed by a dilution of 1:20. The plates were then inoculated with 10 μL of the diluted inoculum using the Biomek 2000 from low to high drug concentration resulting in a final concentration of approximately 5×10^5 CFU/mL.
(§8) Plates were stacked 3-4 high, covered with a lid on the top plate, placed into plastic bags, and incubated at 35° C. for 16 to 20 hr (vancomycin was read for S. aureus after 24 hr incubation time). The MIC was recorded as the lowest concentration of drug that inhibited visible growth of the organism.

Pseudomonas aeruginosa = assay: Broth microdilution MIC (Example 6); format: cell-based
Experimental: (§9) Test Compounds: The test agents BisEDT (MB-1-B3; Lot No. ED268-1-11-01), MB-2B, and MB-6 were stored at room temperature, in the dark, until assayed.
(§10) For testing daptomycin, calcium was supplemented with […] Ca^2+, resulting in a final concentration of […] Ca^2+ (2, 3).
(§11) MIC Assay Procedure: MIC values were determined using a broth microdilution procedure described by CLSI (2, 3).
(§12) The Biomek 2000 was then used to make 2-fold serial dilutions in the mother plates from column 1 through column 11. The wells of column 12 contained no drug and served as the organism growth control wells for the assay.
(§13) The test panels were prepared on the Biomek FX instrument which transferred 2 μL of drug solution from each well of a mother plate to the corresponding well of each daughter plate in a single step.
as §7, §8

Klebsiella pneumoniae = assay: Broth microdilution MIC (Example 6); format: cell-based
Experimental: as §9, §10, §11, §12, §13, §7, §8

Escherichia coli = assay: Broth microdilution MIC (Example 6); format: cell-based
Experimental: as §9, §10, §11, §12, §13, §7, §8

Acinetobacter baumannii = assay: Broth microdilution MIC (Example 6); format: cell-based
Experimental: as §1, §2, §3, §4, §5, §6, §7, §8

[2] = test system: vancomycin-intermediate Staphylococcus aureus; assay: Broth microdilution MIC (Example 6); format: cell-based
Experimental: as §1, §2, §3, §4, §5, §6, §7, §8

S. aureus = assay: Broth microdilution MIC (Example 5); format: cell-based, Staphylococcus aureus; conditions: Staphylococcus aureus, ATCC 29213 / MSSA, S. aureus MMX 101 (ATCC 29213); QC; MSSA; read-out: MIC
Experimental: (§14) Test and Comparator Agents: The test agents were stored at room temperature until assayed. […] The stock solutions were allowed to stand for at least 1 hr prior to use to auto-sterilize.
(§15) TestMedia: Test media were prepared and stored in accordance with guidelines from CLSI (4, 6, 7).
(§16) Broth Microdilution MC Testing (Aerobic Bacteria and Yeast): The broth microdilution assay method employed for the susceptibility testing of aerobic bacteria (excluding N. gonorrhoeae which was evaluated by agar dilution) and yeast essentially followed the procedures described by CLSI (3, 4, 7, 8) and employed automated liquid handlers to conduct serial dilutions and liquid transfers. […] These would become the ‘mother plates’ from which ‘daughter’ or test plates would be prepared. The drugs (300 μL at 40× the desired top concentration in the test plates) were dispensed into the appropriate well in Column 1 of the mother plates. The Biomek 2000 was used to make serial two-fold dilutions through Column 11 in the “mother plate”. The wells of Column 12 contained no drug and ultimately served as the organism growth control wells.
(§17) The daughter plates were prepared using the Biomek FX which transferred 5 μL of drug solution from each well of a mother plate to the corresponding well of the correct daughter plate in a single step.
(§18) A standardized inoculum of each organism was prepared per CLSI methods (3, 7). Isolated colonies of each test isolate were picked from the primary plate and a suspension was prepared to equal a 0.5 McFarland turbidity standard. Standardized suspensions were then diluted […] (1:100 for yeast, 1:20 for bacteria). After dilution, the inoculum suspensions were then transferred to compartments of sterile reservoirs divided by length (Beckman Coulter), and the Biomek 2000 was used to inoculate all plates. Daughter plates were placed on the Biomek 2000 in reverse orientation so that plates were inoculated from low to high drug concentration.
(§19) The Biomek 2000 delivered 10 μL of standardized inoculum into each well of the appropriate daughter plate for an additional 1:20 dilution.
(§20) Plates were stacked 4 high, covered with a lid on the top plate, placed into plastic bags, and incubated at 35° C. for approximately 24-48 hr for all yeast isolates and 16-24 hr for aerobic bacteria. Plates were viewed from the bottom using a plate viewer. […] MIC endpoints for the test agents and control compounds were read per CLSI criteria (3, 7).

S. pneumoniae = assay: Broth microdilution MIC (Example 5); format: cell-based
Experimental: as §14, §15, §16, §17, §18, §19, §20

SMILES: CC(C)(O/N=C(\C(=O)N[C@@H]1C(=O)N2C(C(=O)[O-])=C(C[n+]3ccccc3)CS[C@H]12)c1csc(N)n1)C(=O)O.O=C(O)[C@H]1/C(=C/CO)O[C@@H]2CC(=O)N21 [CAZ + CLAV]
- MIC ([1]; K. pneumoniae ATCC BAA-1705): >64/4
- MIC ([1]; P. aeruginosa ATCC 27853): 2/4

SMILES: CC(C)(O/N=C(\C(=O)N[C@@H]1C(=O)N2C(C(=O)[O-])=C(C[n+]3ccccc3)CS[C@H]12)c1csc(N)n1)C(=O)O.O=C(O)[C@H]1/C(=C/CO)O[C@@H]2CC(=O)N21 [CAZ/CLAV]
- MIC (Pseudomonas aeruginosa; P. aeruginosa isolate CDC 230, β-lactamase type VIM/OXA): 32/4
- MIC (Pseudomonas aeruginosa; P. aeruginosa isolate CDC 231, β-lactamase type KPC/OXA): >64/4
- MIC (Pseudomonas aeruginosa; P. aeruginosa isolate CDC 241, β-lactamase type IMP/OXA): >64/4
- MIC (Pseudomonas aeruginosa; P. aeruginosa isolate CDC 246, β-lactamase type NDM/OXA): >64/4
- MIC (Pseudomonas aeruginosa; P. aeruginosa isolate CDC 250, β-lactamase type NDM/OXA): >64/4
- MIC (Pseudomonas aeruginosa; P. aeruginosa isolate CDC 356, β-lactamase type KPC): 64/4
- MIC (Pseudomonas aeruginosa; P. aeruginosa isolate CDC 439, β-lactamase type IMP): >64/4
- MIC (Pseudomonas aeruginosa; P. aeruginosa isolate CDC 444, β-lactamase type VIM): 32/4
- MIC (Pseudomonas aeruginosa; P. aeruginosa isolate CDC 457, β-lactamase type VIM): 64/4
- MIC (Pseudomonas aeruginosa; P. aeruginosa isolate CDC 516, β-lactamase type KPC/AmpC): 64/4
- MIC (Pseudomonas aeruginosa; P. aeruginosa isolate CDC 518, β-lactamase type KPC/AmpC): 32/4
- MIC (Klebsiella pneumoniae; K. pneumoniae ATCC BAA-1705, ESBL/KPC): >64/4
- MIC (Klebsiella pneumoniae; K. pneumoniae CDC 112, KPC): >64/4
- MIC (Klebsiella pneumoniae; K. pneumoniae CDC 113, ESBL/KPC): >64/4
- MIC (Klebsiella pneumoniae; K. pneumoniae CDC 115, ESBL/KPC): >64/4
- MIC (Klebsiella pneumoniae; K. pneumoniae CDC 120, ESBL/KPC): 64/4
- MIC (Klebsiella pneumoniae; K. pneumoniae CDC 126, ESBL/KPC): 8 µg/mL
- MIC (Klebsiella pneumoniae; K. pneumoniae CDC 129, ESBL/KPC): >64/4
- MIC (Klebsiella pneumoniae; K. pneumoniae CDC 135, ESBL/VIM): >64/4
- MIC (Klebsiella pneumoniae; K. pneumoniae CDC 138, ESBL/NDM): >64/4
- MIC (Klebsiella pneumoniae; K. pneumoniae CDC 158, ESBL/NDM/OXA): >64/4
- MIC (Escherichia coli; E. coli ATCC BAA-2471, NDM): >64/4
- MIC (Escherichia coli; E. coli CDC 114, ESBL/KPC): 64/4
- MIC (Escherichia coli; E. coli CDC 118, ESBL/NDM): >64/4
- MIC (Escherichia coli; E. coli CDC 435, NDM): >64/4
- MIC (Escherichia coli; E. coli CDC 451, KPC): 16/4
- MIC (Escherichia coli; E. coli CDC 503, ESBL/NDM): >64/4
- MIC (Escherichia coli; E. coli MMX 5745, KPC): 16/4
- MIC (Escherichia coli; E. coli MMX 5755, ESBL): 1/4
- MIC (Acinetobacter baumannii; A. baumannii isolate CDC 273, β-lactamase type ESBL/OXA): 64/4
- MIC (Acinetobacter baumannii; A. baumannii isolate CDC 274, β-lactamase type ESBL/OXA): >64/4
- MIC (Acinetobacter baumannii; A. baumannii isolate CDC 275, β-lactamase type ESBL/OXA): >64/4
- MIC (Acinetobacter baumannii; A. baumannii isolate CDC 277, β-lactamase type ESBL/OXA): >64/4
- MIC (Acinetobacter baumannii; A. baumannii isolate CDC 284, β-lactamase type ESBL/OXA): 16/4
- MIC (Acinetobacter baumannii; A. baumannii isolate CDC 307, β-lactamase type OXA): 64/4
- MIC (Acinetobacter baumannii; A. baumannii isolate CDC 308, β-lactamase type ESBL/OXA): 64/4
- MIC (Acinetobacter baumannii; A. baumannii isolate CDC 311, β-lactamase type OXA): >64/4
- MIC (Acinetobacter baumannii; A. baumannii isolate CDC 312, β-lactamase type OXA): >64/4
- MIC (Acinetobacter baumannii; A. baumannii isolate CDC 313, β-lactamase type ESBL/OXA): >64/4
- MIC (Acinetobacter baumannii; A. baumannii isolate NCTC 13304, β-lactamase type OXA): >64/4

- MIC ([1]; S. aureus ATCC 29213): 0.5 µg/mL
- MIC ([2]; S. aureus isolate NRS 1 (hVISA)): 1 µg/mL
- MIC ([2]; S. aureus isolate NRS 2): 0.25 µg/mL
- MIC ([2]; S. aureus isolate NRS 3): 1 µg/mL
- MIC ([2]; S. aureus isolate NRS 4): 0.5 µg/mL
- MIC ([2]; S. aureus isolate NRS 13): 2 µg/mL
- MIC ([2]; S. aureus isolate NRS 18): 0.5 µg/mL
- MIC ([2]; S. aureus isolate NRS 22): 2 µg/mL
- MIC ([2]; S. aureus isolate NRS 24 (hVISA)): 0.5 µg/mL
- MIC ([2]; S. aureus isolate NRS 27): 0.25 µg/mL
SMILES: CCCCCCCCCC(=O)N[C@@H](Cc1c[nH]c2ccccc12)C(=O)N[C@H](CC(N)=O)C(=O)N[C@@H](CC(=O)O)C(=O)N[C@@H]1C(=O)NCC(=O)N[C@@H](CCCN)C(=O)N[C@@H](CC(=O)O)C(=O)N[C@H](C)C(=O)N[C@@H](CC(=O)O)C(=O)NCC(=O)N[C@H](CO)C(=O)N[C@@H]([C@H](C)CC(=O)O)C(=O)N[C@@H](CC(=O)c2ccccc2N)C(=O)O[C@@H]1C [DAP]

- MIC (S. aureus): 0.2 µg/mL (≈ 0.498 µM)
SMILES: Cc1onc(-c2ccccc2)c1C(=O)N[C@@H]1C(=O)N2[C@@H]1SC(C)(C)[C@@H]2C(=O)O [Oxacillin]

SMILES: COc1cc(Cc2cnc(N)nc2N)cc(OC)c1OC.Cc1cc(NS(=O)(=O)c2ccc(N)cc2)no1 [Trimeth/Sulfa]
- MIC (S. pneumoniae; S. pneumoniae MMX 880, LevR SXTR CCR EryR PenR): 4/76
- MIC (S. pneumoniae; S. pneumoniae MMX 937, MemR SXTR CCR EryR PenR): 16/304
- MIC (S. pneumoniae; S. pneumoniae MMX 3959, CCR EryR): 2/38
- MIC (S. pneumoniae; S. pneumoniae MMX 5440, MemR SXTR CCR EryR PenR): 16/304
- MIC (S. pneumoniae; S. pneumoniae MMX 5445, MemR SXTR CCR EryR PenR): 8/152
- MIC (S. pneumoniae; S. pneumoniae MMX 8133, MemR SXTR CCR EryR PenR): 8/152
